Laboratory results reported in the supplement of paper PMC10307832.

Columns and labels:
Test in all cases: relative viability (nuclei count vs DMSO), 5 days (fraction); higher = more cells survive
Trametinib + Pemetrexed = compound: CC(=O)Nc1cccc(-n2c(=O)n(C3CC3)c(=O)c3c(Nc4ccc(I)cc4F)n(C)c(=O)c(C)c32)c1 [Trametinib] + Nc1nc2[nH]cc(CCc3ccc(C(=O)N[C@@H](CCC(=O)O)C(=O)O)cc3)c2c(=O)[nH]1 [Pemetrexed] (partner 0.2 µM)
Outline: (§1)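 Lung cancer cell lines in 1536-well plates were dosed by pin tool the day after seeding, either with one drug alone or with a fixed anchor-drug dose plus five library-drug doses (not always all listed) in √10 steps. After 5 days, cells were fixed and their nuclei stained in one step (final 0.05% Triton X-100, 1% formaldehyde, 1 ug/ml Hoechst), then counted on 4× images. Relative viability is the nuclei count in treated wells divided by that in vehicle wells. Values are medians of duplicate plates.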

Trametinib + Palbociclib = compound: CC(=O)Nc1cccc(-n2c(=O)n(C3CC3)c(=O)c3c(Nc4ccc(I)cc4F)n(C)c(=O)c(C)c32)c1 [Trametinib] + CC(=O)c1c(C)c2cnc(Nc3ccc(N4CCNCC4)cn3)nc2n(C2CCCC2)c1=O [Palbociclib] (partner 0.5 µM)
Outline: as §1

[1] = compound: CN1C=C(C2=CC=CC=C21)/C=C\3/C4=C(C=CC=N4)NC3=O + CC(C)C[C@H](NC(=O)[C@H](Cc1ccccc1)NC(=O)c1cnccn1)B(O)O [Bortezomib] (partner 0.002 µM)
Outline: as §1

[2] = compound: CN1C=C(C2=CC=CC=C21)/C=C\3/C4=C(C=CC=N4)NC3=O + CS(=O)(=O)CCNCc1ccc(-c2ccc3ncnc(Nc4ccc(OCc5cccc(F)c5)c(Cl)c4)c3c2)o1 [Lapatinib] (partner 2 µM)
Outline: as §1

Cell Line	relative viability (Trametinib + Pemetrexed; first compound 0.0025 µM)	relative viability (Trametinib + Pemetrexed; first compound 0.007906 µM)	relative viability (Trametinib + Pemetrexed; first compound 0.025 µM)	relative viability (Trametinib + Pemetrexed; first compound 0.07906 µM)	relative viability (Trametinib + Pemetrexed; first compound 0.25 µM)	relative viability (Trametinib + Palbociclib; first compound 0.0025 µM)	relative viability (Trametinib + Palbociclib; first compound 0.007906 µM)	relative viability (Trametinib + Palbociclib; first compound 0.025 µM)	relative viability (Trametinib + Palbociclib; first compound 0.07906 µM)	relative viability (Trametinib + Palbociclib; first compound 0.25 µM)	relative viability ([1]; first compound 0.02 µM)	relative viability ([1]; first compound 0.06325 µM)	relative viability ([1]; first compound 0.2 µM)	relative viability ([1]; first compound 0.6325 µM)	relative viability ([1]; first compound 2 µM)	relative viability ([2]; first compound 0.02 µM)	relative viability ([2]; first compound 0.06325 µM)	relative viability ([2]; first compound 0.2 µM)	relative viability ([2]; first compound 0.6325 µM)	relative viability ([2]; first compound 2 µM)
EKVX	0.345	0.381	0.402	0.312	0.358	0.375	0.401	0.173	0.182	0.182	1.05	0.79	0.946	1.04	0.972	0.221	0.148	0.156	0.188	0.167
NCI-H1993	0.511	0.566	0.543	0.543	0.453	0.553	0.526	0.548	0.61	0.448	0.916	1.09	1.09	0.691	0.697	0.694	0.497	0.83	0.788	0.909
NCI-H23	0.549	0.47	0.437	0.305	0.264	0.472	0.414	0.268	0.209	0.175	1.02	0.982	–	0.938	1.21	0.926	0.952	–	0.892	0.991
HCC-827	0.271	0.271	0.263	0.214	0.235	0.461	0.395	0.423	0.296	0.289	0.898	1.02	–	1.03	1.03	0.21	0.185	–	0.159	0.179
PC-3 [JPC-3]	0.994	0.782	0.773	–	0.598	0.556	0.581	0.483	–	0.575	0.7	0.893	0.804	0.838	0.761	0.405	0.425	0.441	0.376	0.447
NCI-H1355	1.03	0.946	0.516	0.717	0.615	0.353	0.321	0.217	0.225	0.224	1.1	1.16	1.03	0.958	0.983	0.952	0.784	0.7	0.637	0.646
NCI-H1975	0.326	0.284	0.246	0.249	0.226	0.543	0.349	0.506	0.19	0.129	0.431	0.36	0.344	0.322	0.317	0.839	0.929	0.775	0.903	0.77
NCI-H460	0.0594	0.0614	0.0626	0.0649	0.0564	0.152	0.0859	0.0921	0.018	0.0172	1.23	1.1	1.07	–	1.14	1.11	1.06	1.09	–	1.23
EPLC-272H	0.318	0.328	0.287	0.294	0.27	0.293	0.303	0.262	0.207	0.239	0.959	0.704	–	0.918	0.873	0.979	0.819	–	0.995	0.883
